Measured values taken from PubChem BioAssay (NCI).
“And” between values parts separate entries of the source, which are not always exact repeats. Equal entries are not always repeated.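 48-hour exposure; five concentrations; linearly interpolated endpoints. GI50 = concentration required for 50% inhibition of growth. TGI is the concentration that stops growth completely.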

Legend:
Test in all cases: inhibition of tumour cell growth, NCI panel, 48 h
NCI-H460 lung = test system: NCI-H460 lung
SF-268 CNS = test system: SF-268 CNS
RXF 393 renal = test system: RXF 393 renal
HCC-2998 colon = test system: HCC-2998 colon
SF-539 CNS = test system: SF-539 CNS
SN12C renal = test system: SN12C renal
SW-620 colon = test system: SW-620 colon
HCT-116 colon = test system: HCT-116 colon
T-47D breast = test system: T-47D breast
SK-MEL-2 melanoma = test system: SK-MEL-2 melanoma

| SMILES | TGI (NCI-H460 lung) | TGI (SF-268 CNS) | TGI (RXF 393 renal) | TGI (HCC-2998 colon) | TGI (SF-539 CNS) | TGI (SN12C renal) | TGI (SW-620 colon) | TGI (HCT-116 colon) | TGI (T-47D breast) | TGI (SK-MEL-2 melanoma) | GI50 (NCI-H460 lung) | GI50 (SF-268 CNS) | GI50 (HCC-2998 colon) | GI50 (HCT-116 colon) | GI50 (T-47D breast) | GI50 (SF-539 CNS) | GI50 (SN12C renal) | GI50 (SW-620 colon) | GI50 (SK-MEL-2 melanoma) | GI50 (RXF 393 renal) |
| --- | --- | --- | --- | --- | --- | --- | --- | --- | --- | --- | --- | --- | --- | --- | --- | --- | --- | --- | --- | --- |
| CCC1C(C)c2c([nH]c3ccccc23)C2C(=O)N(c3ccccc3)C(=O)C21 (stereo unspecified) | 28.2 µM | 62.5 µM | 26 µM | 28.9 µM | 34.5 µM | 26.3 µM | 35.9 µM | – | – | – | – | – | – | – | – | – | – | – | – | – |
| O=c1[nH]cc(CS(=O)(=O)Cc2c[nH]c(=O)[nH]c2=O)c(=O)[nH]1 | > 100 µM | > 100 µM | > 100 µM | – | > 100 µM | > 100 µM | > 100 µM | > 100 µM | > 100 µM | > 100 µM | – | – | – | – | – | – | – | – | – | – |
| C=C(CN1CCN(c2ccccc2OC)CC1)c1ccc(C(=O)Nc2ccccc2N)cc1 | > 50 µM | 36 µM | – | 0.452 µM | 23.7 µM | 0.0874 µM | > 50 µM | 18.3 µM | 45.2 µM | 37.9 µM | 17.5 µM | 12.2 µM | 0.27 µM | 6.02 µM | 10.8 µM | 2.18 µM | 0.0129 µM | 2.1 µM | 12.6 µM | – |
| Cc1c[nH]c2c1C13CC1CN(C(=O)c1cc4cc(NC(=O)c5cc6ccccc6o5)ccc4[nH]1)C3=CC2=O (stereo unspecified) | < 0.001 µM | < 0.001 µM | < 0.001 µM | < 0.001 µM | < 0.001 µM | < 0.001 µM | 1.07 nM and 0.00324 µg/mL | 11.2 nM and 0.117 µg/mL | – | < 0.001 µM | > 1.17 ng/mL | > 1.17 ng/mL | > 1.17 ng/mL | > 1.17 ng/mL | – | – | > 1.17 ng/mL | > 1.17 ng/mL | > 1.17 ng/mL | – |
| Cc1cccc(NC(=O)C(=O)C2C(=O)NC(=O)NC2=O)c1C | > 100 µM | > 100 µM | > 100 µM | > 100 µM | > 100 µM | > 100 µM | > 100 µM | > 100 µM | – | > 100 µM | – | – | – | – | – | – | – | – | – | – |
| C/C1=C\[C@H](C)C[C@H](C)OC(=O)C[C@H](c2ccc(O)cc2)NC(=O)[C@@H](Cc2c(Br)[nH]c3ccccc23)N(C)C(=O)[C@H](C)NC(=O)[C@@H](C)C1 | 23.6 µM | 0.443 µM and 0.166 µM | 0.464 µM and 0.615 µM | 2.27 µM | 0.622 µM and 0.0655 µM | > 45.9 µM | > 100 µM | 0.705 µM and 5.15 µM | – | 0.251 µM and 0.0476 µM | 0.0126 µM | 0.0352 µM | 0.43 µM | 0.0329 µM | – | 0.238 µM | 0.0738 µM | 0.0347 µM | 0.0999 µM and 0.0207 µM | 0.228 µM |
| Cc1ccc(S(=O)(=O)N(/N=C(\N)Oc2ccc(Cl)cc2)C(=N)Oc2ccc(Cl)cc2)cc1 | > 100 µM | > 100 µM | > 100 µM | > 100 µM | > 100 µM | > 100 µM | > 100 µM | > 100 µM | – | > 100 µM | – | – | – | – | – | – | – | – | – | – |
| COC(=O)c1c[nH]c(=O)[nH]c1=O | > 100 µM | > 100 µM | – | > 100 µM | > 100 µM | > 100 µM | > 100 µM | > 100 µM | > 100 µM | > 100 µM | – | – | – | – | – | – | – | – | – | – |
| OCC(O)C(O)c1nn(-c2ccccc2)c2nc3cc(Cl)c(Cl)cc3nc12 (stereo unspecified) | 82.1 µM | 80.5 µM | 47.4 µM | 86.5 µM | 71 µM | > 100 µM | > 100 µM | 54.4 µM | – | 74.1 µM | – | – | – | – | – | – | – | – | – | – |
| COc1cc([C@@H]2c3cc4c(cc3[C@@H](NC(=O)c3ccc(N)cc3)C3COC(=O)[C@@H]32)OCO4)cc(OC)c1O (stereo partly specified) | 10.9 µM | > 100 µM | 67.6 µM | 17.2 µM | 3.87 µM | 4.54 µM | 20.8 µM | 17 µM | – | 28.3 µM | – | – | – | – | – | – | – | – | – | – |
| O=[N+]([O-])c1cccc([N+](=O)[O-])c1S(=O)(=O)c1ccccc1 | 46.7 µM | 29 µM | – | – | 30.2 µM | 12.3 µM | 5.9 µM | 4.04 µM | 4.8 µM | – | – | – | – | – | – | – | – | – | – | – |
| CC#C[C@@]1(O)CCCC[C@@H]1O | > 100 µM | > 100 µM | > 100 µM | > 100 µM | > 100 µM | > 100 µM | > 100 µM | > 100 µM | – | > 100 µM | – | – | – | – | – | – | – | – | – | – |
| COc1ccc(SC2c3cc(OC)c(OC)cc3Oc3nc(N)c(C#N)c(N)c32)cc1 (stereo unspecified) | 4.38 µM | 3.07 µM | 2.01 µM | 3.12 µM | 2.68 µM | – | 3.2 µM | 2.16 µM | 3.31 µM | 2.8 µM | 1.66 µM | 1.55 µM | 1.72 µM | 0.68 µM | 1.3 µM | 1.38 µM | – | 1.24 µM | 1.36 µM | 0.74 µM |
| c1ccc2c(CNCCCCCCNCc3cccc4ccccc34)cccc2c1 | 3.75 µM | 25.7 µM | 6.9 µM | – | 3.48 µM | 25.3 µM | 14.1 µM | 4.35 µM | – | 3.02 µM | – | – | – | – | – | – | – | – | – | – |
| COc1ccc2cccc(C(=O)c3ccc(C)c4c3CCC4)c2c1 | > 100 µM | > 100 µM | 73.5 µM | 43.1 µM | – | > 100 µM | > 100 µM | > 100 µM | – | 98.2 µM | – | – | – | – | – | – | – | – | – | – |
| Cc1cnc[nH]c1=O | > 100 µM | > 100 µM | – | > 100 µM | – | > 100 µM | > 100 µM | > 100 µM | – | > 100 µM | – | – | – | – | – | – | – | – | – | – |
| S=c1nc(-c2ccccc2)oc(=NC2CCCCC2)n1C1CCCCC1 | 10.2 µM | 17.6 µM | – | 13.7 µM | 20.4 µM | 18.7 µM | 14.6 µM | 17.1 µM | 21.4 µM | 17.8 µM | 2.93 µM | 4.72 µM | 3.79 µM | 4.19 µM | 3.85 µM | 5.73 µM | 3.94 µM | 3.78 µM | 4.51 µM | – |
| O=C(CC(=O)N1N=C(c2ccccc2)C(N=Nc2ccc(C(=O)O)cc2)C1=O)Nc1ccc(F)cc1 (stereo unspecified) | > 100 µM | > 100 µM | 25.3 µM | – | 54.5 µM | > 100 µM | > 100 µM | 28.8 µM | – | 41.8 µM | – | – | – | – | – | – | – | – | – | – |
